Reference: patent publication US8211662B2, “Nitroreductase enzymatic substrates” (Biomerieux, priority 2007, dated 2012)

How the values were obtained:
[1] = test system: Bacillus subtilis NCTC 9372; assay: Nitroreductase detection on Columbia agar, colonies read under UV; type: cell-based; set-up: key: − = no fluorescence detected; +/− = weak fluorescence; + = medium fluorescence; ++ = strong fluorescence; conditions: 100 mg/l in Columbia agar, 24 h 37° C., UV 360-365 nm
Experimental: (§1) A mass of 40 mg of each substrate was dissolved in 4 ml of dimethylformamide (DMF). This solution was entirely taken up in 400 ml of Columbia agar autoclaved beforehand and kept molten at 50° C. The final concentration for each substrate was 100 mg/l.
(§2) Each of the media was distributed into Petri dishes 90 mm in diameter, in a proportion of 20 ml per dish.
(§3) 18 microorganism strains derived from collections and belonging to various species of bacteria and of yeasts were inoculated onto these media by semi-quantitative isolation of 10 μl of a suspension at 0.5 McFarland diluted to 1/20. The media were incubated for 24 hours at 37° C., then the colonies formed were examined visually under UV illumination at 360-365 nm.

[2] = test system: Candida albicans ATCC 90028; assay: as above; type: cell-based; set-up: key: − = no fluorescence detected; +/− = weak fluorescence; + = medium fluorescence; ++ = strong fluorescence; conditions: 100 mg/l in Columbia agar, 24 h 37° C., UV 360-365 nm
Experimental: as §1, §2, §3

[3] = test system: Enterobacter cloacae NCTC 11936; assay: as above; type: cell-based; set-up: key: − = no fluorescence detected; +/− = weak fluorescence; + = medium fluorescence; ++ = strong fluorescence; conditions: 100 mg/l in Columbia agar, 24 h 37° C., UV 360-365 nm
Experimental: as §1, §2, §3

[4] = test system: Enterococcus faecalis NCTC 775; assay: as above; type: cell-based; set-up: key: − = no fluorescence detected; +/− = weak fluorescence; + = medium fluorescence; ++ = strong fluorescence; conditions: 100 mg/l in Columbia agar, 24 h 37° C., UV 360-365 nm
Experimental: as §1, §2, §3

[5] = test system: Escherichia coli NCTC 10418; assay: as above; type: cell-based; set-up: key: − = no fluorescence detected; +/− = weak fluorescence; + = medium fluorescence; ++ = strong fluorescence; conditions: 100 mg/l in Columbia agar, 24 h 37° C., UV 360-365 nm
Experimental: as §1, §2, §3

[6] = test system: Listeria monocytogenes NCTC 11994; assay: as above; type: cell-based; set-up: key: − = no fluorescence detected; +/− = weak fluorescence; + = medium fluorescence; ++ = strong fluorescence; conditions: 100 mg/l in Columbia agar, 24 h 37° C., UV 360-365 nm
Experimental: as §1, §2, §3

[7] = test system: Pseudomonas aeruginosa NCTC 10662; assay: as above; type: cell-based; set-up: key: − = no fluorescence detected; +/− = weak fluorescence; + = medium fluorescence; ++ = strong fluorescence; conditions: 100 mg/l in Columbia agar, 24 h 37° C., UV 360-365 nm
Experimental: as §1, §2, §3

[8] = test system: Serratia marcescens NCTC 10211; assay: as above; type: cell-based; set-up: key: − = no fluorescence detected; +/− = weak fluorescence; + = medium fluorescence; ++ = strong fluorescence; conditions: 100 mg/l in Columbia agar, 24 h 37° C., UV 360-365 nm
Experimental: as §1, §2, §3

[9] = test system: Staphylococcus aureus NCTC 6571; assay: as above; type: cell-based; set-up: key: − = no fluorescence detected; +/− = weak fluorescence; + = medium fluorescence; ++ = strong fluorescence; conditions: 100 mg/l in Columbia agar, 24 h 37° C., UV 360-365 nm
Experimental: as §1, §2, §3

[10] = test system: Staphylococcus epidermidis NCTC 11047; assay: as above; type: cell-based; set-up: key: − = no fluorescence detected; +/− = weak fluorescence; + = medium fluorescence; ++ = strong fluorescence; conditions: 100 mg/l in Columbia agar, 24 h 37° C., UV 360-365 nm
Experimental: as §1, §2, §3

[11] = test system: Streptococcus pyogenes NCTC 8306; assay: as above; type: cell-based; set-up: key: − = no fluorescence detected; +/− = weak fluorescence; + = medium fluorescence; ++ = strong fluorescence; conditions: 100 mg/l in Columbia agar, 24 h 37° C., UV 360-365 nm
Experimental: as §1, §2, §3

[12] = test system: Yersinia enterocolitica NCTC 11176; assay: as above; type: cell-based; set-up: key: − = no fluorescence detected; +/− = weak fluorescence; + = medium fluorescence; ++ = strong fluorescence; conditions: 100 mg/l in Columbia agar, 24 h 37° C., UV 360-365 nm
Experimental: as §1, §2, §3

[13] = test system: Acinetobacter baumanii ATCC 19606; assay: as above; type: cell-based; set-up: key to Intensity of fluorescence, Acinetobacter baumanii ATCC 19606 / Intensity of the fluorescence, Acinetobacter baumanii ATCC 19606: − = no fluorescence detected; +/− = weak fluorescence; + = medium fluorescence; ++ = strong fluorescence; conditions: for Intensity of fluorescence, Acinetobacter baumanii ATCC 19606: 100 mg/l in Columbia agar, 24 h 37° C., UV 360-365 nm
Experimental: as §1, §2, §3

[14] = test system: Salmonella typhimurium NCTC 74; assay: as above; type: cell-based; set-up: key to Intensity of fluorescence, Salmonella typhimurium NCTC 74 / F: fluorescence (intensity), Salmonella typhimurium NCTC 74 / Intensity of the fluorescence, Salmonella typhimurium NCTC 74: − = no fluorescence detected; +/− = weak fluorescence; + = medium fluorescence; ++ = strong fluorescence; conditions: for Intensity of fluorescence, Salmonella typhimurium NCTC 74: 100 mg/l in Columbia agar, 24 h 37° C., UV 360-365 nm; for Salmonella typhimurium result with the substrate: table 2
Experimental: as §1, §2, §3

[15] = test system: Morganella morganii 462403 (wild); assay: as above; type: cell-based; set-up: key to Intensity of fluorescence, Morganella morganii 462403 / F: fluorescence (intensity), Morganella morganii 462403 (wild) / Intensity of the fluorescence, Morganella morganii 462403 (wild): − = no fluorescence detected; +/− = weak fluorescence; + = medium fluorescence; ++ = strong fluorescence; conditions: for Intensity of fluorescence, Morganella morganii 462403: 100 mg/l in Columbia agar, 24 h 37° C., UV 360-365 nm
Experimental: as §1, §2, §3

MRSA NCTC 11939 = assay: as above; type: cell-based, Staphylococcus aureus; set-up: key: − = no fluorescence detected; +/− = weak fluorescence; + = medium fluorescence; ++ = strong fluorescence; conditions: 100 mg/l in Columbia agar, 24 h 37° C., UV 360-365 nm
Experimental: as §1, §2, §3

[16] = test system: Candida glabrata NCPF 3943; assay: as above; type: cell-based; set-up: key to Intensity of fluorescence, Candida glabrata NCPF3943 / F: fluorescence (intensity), Candida glabrata NCPF 3943 / Intensity of the fluorescence, Candida glabrata NCPF 3943: − = no fluorescence detected; +/− = weak fluorescence; + = medium fluorescence; ++ = strong fluorescence; conditions: 100 mg/l in Columbia agar, 24 h 37° C., UV 360-365 nm
Experimental: as §1, §2, §3

[17] = test system: S. aureus (including MRSA) 10 strains; assay: Detection of various strains of S. aureus in the presence of substrates; type: cell-based, Staphylococcus aureus; conditions: for No. of strains detected, S. aureus (including MRSA): 10 strains
S. epidermidis 2 strains = assay: as above; type: cell-based
Experimental: as §1, §2
18 microorganism strains derived from collections and belonging to various species of bacteria and of yeasts were inoculated onto these media by semi-quantitative isolation of 10 μl of a suspension at 0.5 McFarland diluted to 1/20. […]

Staph spp 12 strains = assay: as above; type: cell-based
Enterococcus 6 strains = assay: as above; type: cell-based

| Intensity of fluorescence, Bacillus subtilis NCTC 9372 [1] | Intensity of fluorescence, Enterobacter cloacae NCTC 11936 [3] | Intensity of fluorescence, Enterococcus faecalis NCTC 775 [4] | Intensity of fluorescence, Listeria monocytogenes NCTC 11994 [6] | Intensity of fluorescence, Pseudomonas aeruginosa NCTC 10662 [7] | Intensity of fluorescence, Serratia marcescens NCTC 10211 [8] | Intensity of fluorescence, Streptococcus pyogenes NCTC 8306 [11] | Compound | Intensity of fluorescence, Candida albicans ATCC 90028 [2] | Intensity of fluorescence, Escherichia coli NCTC 10418 [5] | Intensity of fluorescence, Staphylococcus aureus NCTC 6571 [9] | Intensity of fluorescence, Staphylococcus epidermidis NCTC 11047 [10] | Distinguishing or identifying Staphylococcus aureus strains, in particular MRSA, from most of the other Gram-positive bacterial strains [17] | No. of strains detected, S. aureus (including MRSA) ([17]; 24 h) | No. of strains detected, S. aureus (including MRSA) ([17]; 48 h) | No. of strains detected, S. epidermidis (S. epidermidis 2 strains; 24 h) | No. of strains detected, S. epidermidis (S. epidermidis 2 strains; 48 h) | No. of strains detected, Staph spp (Staph spp 12 strains; 24 h) | No. of strains detected, Staph spp (Staph spp 12 strains; 48 h) | No. of strains detected, Enterococcus (Enterococcus 6 strains; 24 h) | No. of strains detected, Enterococcus (Enterococcus 6 strains; 48 h) | also measured |
| --- | --- | --- | --- | --- | --- | --- | --- | --- | --- | --- | --- | --- | --- | --- | --- | --- | --- | --- | --- | --- | --- |
| − | ++ | − | − | − | ++ | − | O=[N+]([O-])c1ccc(F)cc1-c1nc2ccccc2o1 [Substrate 7] | − | ++ | ++ | − | make it possible to distinguish or identify the Staphylococcus aureus strains | 10 | 10 | 0 | 2 | 12 | 12 | 0 | 1 | Intensity of fluorescence, Yersinia enterocolitica NCTC 11176 [12]: −; Intensity of fluorescence, Acinetobacter baumanii ATCC 19606 [13]: +; Distinguishing Pseudomonas aeruginosa from Acinetobacter baumanii ([13]; table 2): make it possible to distinguish Pseudomonas aeruginosa from Acinetobacter baumanii; Intensity of fluorescence, Salmonella typhimurium NCTC 74 [14]: ++; Salmonella typhimurium result with the substrate [14]: strongly positive; Intensity of fluorescence, Morganella morganii 462403 [15]: ++; Intensity of fluorescence, Staphylococcus aureus NCTC 11939 (MRSA NCTC 11939): ++; Intensity of fluorescence, Candida glabrata NCPF3943 [16]: − |
|  |  |  |  |  |  |  | CN1CCN(c2ccc([N+](=O)[O-])c(-c3nc4ccccc4o3)c2)CC1 [Substrate 8] |  |  |  |  | make it possible to distinguish or identify the Staphylococcus aureus strains | 10 | 10 | 0 | 2 | 12 | 12 | 0 | 1 |  |
| − | − | − | − | − | − | − | O=[N+]([O-])c1ccccc1-c1nc2ccccc2n1CCc1ccccc1 [Substrate 12] | − | − | − | − |  |  |  |  |  |  |  |  |  | Intensity of fluorescence, Yersinia enterocolitica NCTC 11176 [12]: −; Intensity of fluorescence, Acinetobacter baumanii ATCC 19606 [13]: −; Intensity of fluorescence, Salmonella typhimurium NCTC 74 [14]: −; Salmonella typhimurium result with the substrate [14]: negative; Intensity of fluorescence, Morganella morganii 462403 [15]: +/−; Specificity of the substrate ([15]; table 2): specific for Morganella morganii; Intensity of fluorescence, Staphylococcus aureus NCTC 11939 (MRSA NCTC 11939): −; Intensity of fluorescence, Candida glabrata NCPF3943 [16]: − |
|  |  |  |  |  |  |  | O=[N+]([O-])c1ccc(Cl)cc1-c1nc2ccccc2s1 [Substrate 21] |  |  |  |  | make it possible to distinguish or identify the Staphylococcus aureus strains | 10 | 10 | 0 | 2 | 12 | 12 | 0 | 1 |  |
|  |  |  |  |  |  |  | O=[N+]([O-])c1ccc(Cl)cc1-c1nc2ccccc2o1 [Substrate 4] |  |  |  |  | make it possible to distinguish or identify the Staphylococcus aureus strains | 10 | 10 | 0 | 2 | 12 | 12 | 0 | 1 |  |
| − | + | − | − | − | + | − | COc1cc(-c2nc3ccccc3o2)c([N+](=O)[O-])cc1OC [Substrate 6] | − | + | + | − | make it possible to distinguish or identify the Staphylococcus aureus strains | 10 | 10 | 0 | 2 | 12 | 12 | 0 | 1 | Intensity of fluorescence, Yersinia enterocolitica NCTC 11176 [12]: −; Intensity of fluorescence, Acinetobacter baumanii ATCC 19606 [13]: −; Intensity of fluorescence, Salmonella typhimurium NCTC 74 [14]: −; Salmonella typhimurium result with the substrate [14]: negative; Intensity of fluorescence, Morganella morganii 462403 [15]: +/−; Intensity of fluorescence, Staphylococcus aureus NCTC 11939 (MRSA NCTC 11939): +; Intensity of fluorescence, Candida glabrata NCPF3943 [16]: − |
|  |  |  |  |  |  |  | Cc1ccc2oc(-c3ccccc3[N+](=O)[O-])nc2c1 [Substrate 3] |  |  |  |  | make it possible to distinguish or identify the Staphylococcus aureus strains | 10 | 10 | 0 | 2 | 12 | 12 | 0 | 1 |  |
